Test results published in patent EP0777471B1, “INHIBITION OF LEUKOTRIENE BIOSYNTHESIS WITH UREA DERIVATIVES” (MINNESOTA MINING AND MANUFACTURING COMPANY, priority 1994, dated 1996).
“And” between values parts separate entries of the source, which are not always exact repeats. Equal values may be shown once. Read-outs that look alike come from different tables or passages of the source. One block for each molecule: values may come before it.

Columns and labels:
[1] = test system: production of Leukotriene B4 (LTB4); assay: Dog ex vivo Leukotriene B4 inhibition (oral dosing, blood challenged with calcium ionophore); assay type: in vivo, beagle dogs; conditions: each entry one dog, negative = stimulation of LTB4 production; for % Inhibition 1 hour / % Inhibition 2 hour / % Inhibition 4 hour / % Inhibition 6 hour: 5 mg/Kg; for % Inhibition 4 hour: 4 hour post dose; for % Inhibition 6 hour: 6 hour post dose; for inhibition at 5 mg/kg: Canis lupus familiaris, po
Experimental: The test method described below measures the ability of a compound when administered orally to dogs to inhibit the production of Leukotriene B4 (LTB4) in their blood which is drawn and challenged at selected time points.
The test is conducted in beagle dogs (male and female; about 10 Kg). Prior to starting, the neck area of the beagle is shaved to allow easy access to the jugular vein. A 3-4 mL sample of blood is drawn from the jugular vein into a heparinized vacutainer. The dog is then dosed using a tube long enough to reach its stomach. The compound is dissolved in PEG 400 at a concentration such that the appropriate dose can be administered in approximately 5 mL. Immediately after the compound is given, a flush using 5 mL of vehicle is given to rinse the dosing tube. At selected time points following the dose, a 3-4 mL sample of blood is drawn.
The blood samples that have been drawn are challenged as soon as possible. A 0.5 mL portion of blood is aliquoted into 3 tubes (1 mL microtiter tubes). A 1 µL portion of 25 mM calcium ionophore in dimethyl sulfoxide is added to 2 of the tubes. A 1 µL portion of dimethyl sulfoxide is added to the third tube. The tubes are lightly mixed then placed in a 37°C water bath for 30 minutes. The tubes are centrifuged at 11,000 rpm for 3 minutes and the plasma supernatant is transferred to clean tubes. A 50 µL portion of this plasma is added to a I mL microtiter tube containing 200 µL of methanol. The tubes are placed in the freezer at -20°C for at least 1 hour then centrifuged at 2000 rpm for 10 minutes. A 10 µL portion of the methanol supematant is dried under vacuum at ambient temperature and then reconstituted in LTB4 buffer. The amount of LTB4 in the sample is determined by radioimmunoassay performed according to the manufacturer's (Advanced Magnetics; Cambridge, MA) instructions. Percent inhibition values are obtained by comparing the level of LTB4 in the post-dose sample to the level in the pre-dose sample according to the equation below. % Inhibition =((LTB4 predose) - (LTB4 postdose))/((LTB4 predose))X 100 [formula]
A number of the compounds that are useful in the practice of the method of the invention were tested. The results are shown in Table 15 below where each entry represents the results from one dog. A negative number indicates stimulation of LTB4 production. All compounds were tested at a dose of 5 mg/Kg.

[2] = test system: production of Leukotriene B4; assay: Rat ex vivo Leukotriene B4 inhibition (oral dosing, blood challenged with A23187); assay type: in vivo, Rats; conditions: two hours post dose
Experimental: The test method described below measures the ability of a compound when administered orally to rats to inhibit the production of Leukotriene B4 in their blood which is drawn and challenged.
Rats (CD, male, non-fasted, 250 g) are lightly anesthetized with carbon dioxide and an approximately 0.75 mL sample of whole blood is obtained via cardiac puncture. The sample is dispensed into 12 X 75 mm polypropylene tubes containing 8-10 µL of 10,000 units/mL heparin, mixed and then maintained on ice. The rats are allowed to recover approximately one hour then dosed orally with compound dissolved in PEG 400 at a 5 mL/Kg volume. Five (5) rats are utilized per group. Two (2) hours post dose the rats are again anesthetized with carbon dioxide and the blood sampled again via cardiac puncture.
Duplicate 200 µL portions of blood are added to 1.0 mL polypropylene tubes. A 10 µL portion of 1mM A23187 Calcium Ionophore in dimethyl sulfoxide/Tris buffer is added to each tube. The tubes are gently vortexed then incubated in a 37°C water bath for 30 minutes. The tubes are then centrifuged at 4000 rpm for 10 minutes. 50 µL portions of plasma are transferred to 1.0 mL tubes containing 200 µL of methanol. The tubes are vortexed then placed in the freezer overnight.
The tubes are removed from the freezer then centrifuged at 4000 rpm for 10 minutes. […] portions of the methanol/plasma supernatant and 10 µL methanol dilutions of LTB4 standard curve are transferred to 96 well v-bottom microtiter plates. The plates are vacuum dried at 40°C. A 40 µL portion of LTB4 radioimmunoassay buffer is added to each well. The plate is bath sonicated for 5 minutes then assayed according to the manufacturer's (Advanced Magnetics; Cambridge, MA) instructions. Percent inhibition values are obtained by comparing the level of LTB4 in the post-dose samples to the level in the pre-dose samples according to the equation below. % Inhibition =((LTB4 pre-dose) - (LTB4 post-dose))/((LTB4 pre-dose))X 100 [formula]

[3] = test system: production of Leukotriene C4 in mouse peritoneal macrophages; assay: In vitro mouse peritoneal macrophage Leukotriene C4 inhibition (zymosan-stimulated, LTC4 radioimmunoassay); assay type: cell-based; conditions: Zymosan 50 µg/mL
Experimental: The test method described below measures the ability of compounds to inhibit the production of Leukotriene C4 in mouse peritoneal macrophages.
Mice (female, CD-1, weighing 25 g) are euthanized by exposure to carbon dioxide. The peritoneal cavity is exposed by peeling back the abdominal skin. A 5 mL portion of media (M199 containing 1% fetal bovine serum, 100 units/mL of penicillin, 100 µg/mL of streptomycin, 20 units/mL of heparin and no glutamine) is injected into the exposed peritoneal cavity of each mouse. The lavage fluid is removed and pooled to yield approximately1 X 10^6 macrophages/mL. A 2 mL portion of lavage fluid is added to each well of a 24 well sterile multidish and the macrophages are allowed to adhere to the plate for 2 hours at 37°C in a 5% carbon dioxide atmosphere. The media is removed and each well is washed with 2 mL of phosphate buffered saline (PBS). A 1 mL portion of media, without heparin, but containing 5 µCi/mL of 3H-myoinositol is added to each well and the plates are incubated overnight at 37°C in a 5% carbon dioxide atmosphere. The media is removed and the cells are washed twice with 2 mL portions of PBS. A 1 mL portion of Puck's saline formulation A containing 1 mM calcium chloride, 1 mM magnesium chloride and 10 mM lithium chloride is added to each well. (The Puck's formulation is made first as a 10X solution which contains 4 g of potassium chloride, 80 g of sodium chloride and 10 g of glucose per liter. The Puck's saline formulation A is made using 10 mL of the 10X Puck's formulation, 0.47 mL of 7.5% sodium bicarbonate and 2 mL of 1M N-2-hydroxyethylpiperazine-N'-2-ethanesulfonic acid per 100 mL.)
Compounds are dissolved in dimethyl sulfoxide. Compounds are tested at concentrations of 10, 1 and 0.1 µM. Each concentration is tested in duplicate.
A 1 µL portion of compound solution or vehicle (DMSO) is added to each well and the plates are incubated for 15 minutes at 37°C in a 5% carbon dioxide atmosphere. Zymosan is then added to provide a final concentration of 50 µg/mL in each well and the plate is incubated for 1 to 2 hours at 37°C in a 5% carbon dioxide atmosphere.
Following incubation 200 µL portions of media are transferred to 12 X 75 mm tubes. The tubes are either assayed immediately or stored at -20°C until they can be assayed.
The media is assayed for the presence of Leukotriene C4 by radioimmunoassay which is performed according to the manufacturer's (Advanced Magnetics; Cambridge, MA) instructions.

[4] = 1 h, 1 hour post dose, read-out: % Inhibition 1 hour
[5] = 2 h, 2 hour post dose, read-out: % Inhibition 2 hour

Structure (SMILES): CCC(CC)N(O)C(=O)Nc1ccccc1 [Compound 42, 1-(1-Ethylpropyl)-1-hydroxy-3-phenylurea]
% Inhibition 1 hour ([1]; 1 hour post dose): 98% and 100%
% Inhibition 2 hour ([1]; 2 hour post dose): 100%
% Inhibition 4 hour [1]: 97% and 100% and -91%
% Inhibition 6 hour [1]: 78% and 85% and 91% and -150%
inhibition at 5 mg/kg [1, 4]: 99%
inhibition at 5 mg/kg [1, 5]: 99%
%I ([2]; 50 mg/Kg): 4%

IC50 [3]: < 1 µM
Structure (SMILES): CCC(CC)N(O)C(=O)Nc1ccc(OCc2ccccc2)cc1 [Compound 80, 1-Hydroxy-1-(1-ethylpropyl)-3-(4-benzyloxyphenyl)urea]

IC50 [3]: < 1 µM
Structure (SMILES): CCC(CC)N(O)C(=O)Nc1ccc(C(=O)c2ccccc2)cc1 [Compound 79, 1-Hydroxy-1-(1-ethylpropyl)-3-(4-benzoylphenyl)urea]

Structure (SMILES): CC(C)(C)CCN(O)C(=O)Nc1ccccc1 [Compound 48, 1-(3,3-dimethylbutyl)-1-hydroxy-3-phenylurea]
%I ([2]; 50 mg/Kg): 2%

Structure (SMILES): COc1ccccc1NC(=O)N(O)C(C)C [Compound 29, 1-hydroxy-3-(2-methoxyphenyl)-1-(1-methylethyl)urea]
%I ([2]; 50 mg/Kg): 61%

Structure (SMILES): CCOCCN(O)C(=O)Nc1ccccc1 [Compound 45, 1-(2-ethoxyethyl)-1-hydroxy-3-phenylurea]
%I ([2]; 50 mg/Kg): 6%

IC50 [3]: < 1 µM
Structure (SMILES): CCC(CC)N(O)C(=O)Nc1ccc(Oc2ccccc2)cc1 [Compound 72, 1-Hydroxy-1-(1-ethylpropyl)-3-(4-phenoxyphenyl)urea]

Structure (SMILES): COc1cc(NC(=O)N(O)C(C)C)cc(OC)c1OC [Compound 66, 1-Hydroxy-1-(1-methylethyl)-3-(3,4,5-trimethoxyphenyl)urea]
%I ([2]; 50 mg/Kg): 61%

Structure (SMILES): CCC(CC)N(O)C(=O)Nc1ccc(Br)cc1 [Compound 41, 3-(4-Bromophenyl)-1-(1-ethylpropyl)-1-hydroxyurea]
%I ([2]; 50 mg/Kg): 14%

Structure (SMILES): CC(C)N(O)C(=O)Nc1cccc([S+](C)[O-])c1 (centres unmarked) [Compound 61, 1-Hydroxy-1-(1-methylethyl)-3-[3-(methylsulfinyl)phenyl]urea]
% Inhibition 2 hour ([1]; 2 hour post dose): 99%
% Inhibition 4 hour [1]: 29% and -2%
% Inhibition 6 hour [1]: -32% and 22%
inhibition at 5 mg/kg [1, 4]: 100%
inhibition at 5 mg/kg [1, 5]: 100%

Structure (SMILES): CCCCc1ccc(NC(=O)N(C)O)cc1 [Compound 12, 3-(4-butylphenyl)-1-hydroxy-1-methylurea]
%I ([2]; 50 mg/Kg): 42%

IC50 [3]: < 1 µM
Structure (SMILES): CCCC(C)N(O)C(=O)Nc1ccccc1 (centres unmarked) [Compound 68, 1-Hydroxy-1-(1-methylbutyl)-3-phenylurea]

Structure (SMILES): CN(O)C(=O)Nc1ccc(S(C)(=O)=O)cc1 [Compound 65, 1-Hydroxy-1-methyl-3-[4-(methylsulfonyl)phenyl]urea]
%I ([2]; 50 mg/Kg): 93%

IC50 [3]: < 1 µM
Structure (SMILES): CCC(CC)N(O)C(=O)Nc1ccc(OCC2CCCCC2)cc1 [Compound 81, 1-Hydroxy-1-(1-ethylpropyl)-3-[4-(cyclohexylmethoxy)phenyl]urea]

Structure (SMILES): CCCCCN(O)C(=O)Nc1ccc(CCCC)cc1 [Compound 57, 3-(4-Butylphenyl)-1-hydroxy-1-pentylurea]
%I ([2]; 50 mg/Kg): 35%

Structure (SMILES): CCCCC(CC)CN(O)C(=O)Nc1ccccc1 (centres unmarked) [Compound 47, 1-(2-ethylhexyl)-1-hydroxy-3-phenylurea]
%I ([2]; 50 mg/Kg): 16%

IC50 [3]: < 1 µM
Structure (SMILES): CN(O)C(=O)Nc1ccc(Oc2ccccc2)cc1 [Compound 14, 1-hydroxy-1-methyl-3-(4-phenoxyphenyl)urea]

Structure (SMILES): CC(C)N(O)C(=O)Nc1cccc(S(C)(=O)=O)c1 [Compound 60, 1-Hydroxy-1-(1-methylethyl)-3-[3-(methylsulfonyl)phenyl]urea]
% Inhibition 1 hour ([1]; 1 hour post dose): 97%
% Inhibition 2 hour ([1]; 2 hour post dose): 52%
% Inhibition 4 hour [1]: -79% and 49%
% Inhibition 6 hour [1]: -95% and 76%
inhibition at 5 mg/kg [1, 4]: 100%

IC50 [3]: < 1 µM
Structure (SMILES): CCC(CC)N(O)C(=O)Nc1ccc(OCCCc2ccccc2)cc1 [Compound 82, 1-Hydroxy-1-(1-ethylpropyl)-3-[4-(3-phenylpropyloxy)phenyl]urea]

Structure (SMILES): O=C(Nc1ccccc1)N(O)C1CCCC1 [Compound 46, 1-cyclopentyl-1-hydroxy-3-phenylurea]
% Inhibition 1 hour ([1]; 1 hour post dose): 77%
% Inhibition 2 hour ([1]; 2 hour post dose): 58%
% Inhibition 4 hour [1]: 11% and 2%
% Inhibition 6 hour [1]: -23% and 46%
inhibition at 5 mg/kg [1, 4]: 80%
inhibition at 5 mg/kg [1, 5]: 64%
%I ([2]; 50 mg/Kg): 17%

Structure (SMILES): COc1ccc(OC)c(NC(=O)N(O)C(C)C)c1 [Compound 28, 3-(2,5-dimethoxyphenyl)-1-hydroxy-1-(1-methylethyl)urea]
%I ([2]; 50 mg/Kg): 29%

Structure (SMILES): CN(O)C(=O)Nc1ccc([S+](C)[O-])cc1 (centres unmarked) [Compound 64, 1-Hydroxy-1-methyl-3-[4-(methylsulfinyl)phenyl]urea]
%I ([2]; 50 mg/Kg): 88%

Structure (SMILES): CCCCc1ccc(NC(=O)N(O)C(C)C)cc1 [Compound 27, 3-(4-butylphenyl)-1-hydroxy-1-(1-methylethyl)urea]
%I ([2]; 10 mg/Kg): 23%
%I ([2]; 25 mg/Kg): 5%
%I ([2]; 50 mg/Kg): 53% and 75%

IC50 [3]: < 1 µM
Structure (SMILES): CCC(CC)N(O)C(=O)Nc1ccc(-c2ccccc2)cc1 [Compound 83, 1-Hydroxy-1-(1-ethylpropyl)-3-(biphenyl-4-yl)urea]

IC50 [3]: < 1 µM
Structure (SMILES): CCC(CC)N(O)C(=O)Nc1cc(C(F)(F)F)cc(C(F)(F)F)c1 [Compound 73, 1-Hydroxy-1-(1-ethylpropyl)-3-(3,5-bis(trifluoromethyl)phenyl)urea]
